Reference: patent US6602852B1, “Basic peptides and pharmaceutical compositions containing same” (NST NeuroSurvival Technologies, Ltd., priority 1998, dated 2003)
pKd: −log10 of the molar value. Like-named read-outs stand apart in the source and are kept apart here.

Assays:
[1] = target: anionic phospholipid membranes; conditions: cited from earlier work
[2] = rabbits, intravenous injection; cited from earlier work
apoptotic hepatocytes = type: in vivo; conditions: data not shown
Procedure: All animals were killed 2 hr after administration of antibody followed by organ removal. Heart, lung and liver were collected.
Formalin fixed paraffin-embedded tissues were sectioned (5 μm) for staining with Hematoxylin/Eosin or other techniques.
Endogenous peroxidase activity was blocked by incubation with 3% H2O2.
After washing with PBS, staining was developed with 3,3-diaminobenzidine tetrahydrochloride (DAB), and counterstained with Hematoxylin.
Liver sections from different lobes were used for detection of stained apoptotic cells compared to normal cells.
The percentage of apoptotic cells in the fields was estimated by evaluating parallel sections stained with Hematoxylin/Eosin. Analysis was performed blindly, since the pathologist performing the histological evaluation was unaware of the assignment of mice to the treatment or control group.

[3] = tested on: HeLa S3 cells undergoing dopamine (DA)-induced apoptosis
Procedure: Said compounds were each dissolved in TBS (Tris Buffered Saline; 10 mM Tris PH 8.0; 150 mM NaCl), at a stock concentration of 10 mM.
HeLa S3 cells (ATCC CCL-2.2) were cultured on a glass chamber slide (Nunc) on a culture area of […]. Chamber slides were pre-coated with 1% gelatin (Sigma) Cells were seeded at a density of 8×10^4 cells/chamber, in a volume of 300 μl of culture medium [Dulbecco's Modified Eagle's Medium (DMEM) supplemented with 2 mM of L-Glutamine; 100 units/ml of Penicilin; 100 μg/ml of Streptomycin; 12.5 units/ml of Nystatin and 10% of Fetal Calf Serum (FCS)]. Following 24 hours of incubation the cells were treated with an apoptotic trigger [i.e. dopamine (DA), which is a well characterized model of apoptosis (Lou et al., J. Biol. Chem. 1998; 273:3756-3764)].
For the DA treatment, the culture medium was replaced by a low serum containing medium (2% FCS), with 500 μM of dopamine (from RBI, Mass., USA) for 18 hours.
The evaluation was performed by staining with Hoechst 33342 dye (Molecular probes). This blue fluorescent dye is rapidly permeable into cells and stains DNA. Hoechst 33342 was added to growing cultures at a concentration of 1 μg/ml and 20 minutes later, the cells were visualized under UV light microscopy. The relative number of apoptotic cells with condensed or fragmented chromatin was then evaluated and compared with non-apoptotic cells which characteristically show a pale and diffuse staining. Photomicrographs were taken for documentation. […] This method was used to evaluate the level of apoptosis in cultured cells prior to binding to the NST300 compounds.
Apoptotic, as well as control untreated cells were grown as specified above and washed twice with TBS. The slides were then incubated with the NST300 compound at concentrations of 250-750 nM for 60 minutes, in a total volume of 100 μl. Slides were then dipped into a Couplin Jar containing 50 ml of TBS, and then incubated with 50 ng/ml of a sterptavidin reagent labeled with FITC (Fluorescein Isothiocyanate Conjugated, from Jackson Immunolaboratory U.S.A.). […] The slides were then washed with TBS as above and were then mounted with Fluoroguard antifade reagent (from Biorad Calif., USA).
The binding was then evaluated with a fluorescent microscope (IX70; Olympus), using a NIBA filter (Narrow Interference Blue A from Olympus).

[4] = tested on: Human Umbilical Vein Endothelial Cells (HUVEC); conditions: 500 ng of compound, 40 minutes
Procedure: HUVEC (CC-2517, obtained from Clonetics, Walkersville, Md.) were grown on tissue culture flasks in Endothelial cell medium (EGM-2 Bulletkit, CC 3162, Clonetics). Mid-confluent cultures were harvested using Trypsine/EDTA solution (CC-5012, Clonetics). The cells were rinsed twice with PBS containing 2% BSA and kept on ice. Samples of 10^6 cells were tested for binding.
The reactions were incubated at room temperature for 40 minutes and then 400 μl of TBS-BSA were added and cells were collected by centrifugation at 3000×g for 3 minutes. Cells were washed in 1 ml of TBS-BSA and centrifuged as before and then suspended in 100 μl of TBS-BSA containing streptavidin conjugated to flourescein (FITC) for detection of the bound biotinylated compound. […] Thereafter, 400 μl of TBS-BSA were added and cells were centrifuged and washed again with 1 ml of TBS-BSA as before and then resuspended in 400 μl of TSS and taken for FACS analysis.
The FACS analysis was performed on Beckton-Dickinson cell sorter, using lysis II software. Excitation was at 488 nm and emission for FITC detection was a 535 nm.
A dot plot analysis was done for each treatment.

[5] = tested on: procoagulant activity of apoptotic HeLa S3 cells; conditions: 0.5 μM; for effect on procoagulant effect of apoptotic cells: FIG. 5a
Procedure: In the standard APTT test, clot formation is triggered by recalcification of plasma and addition of cephalin, i.e. negatively-charged phospholipids. Time until clot formation was measured as described in Example 3. […] In the modified APTT test, used in the present study, the addition of negatively-charged phospholipids (cephalin) was replaced by addition of apoptotic cells.
The cultured medium was discarded, and cells that were loosely attached to the growing surface, were collected in PBS, as described in Example 2B. These cells were washed and resuspended in TBS, and were regarded as advanced apoptotic cells. Equal numbers of apoptotic or control non-treated cells (10^5) in a volume of 100 μl, were mixed with 100 μl of 25 mM of CaCl2 and the clotting time was measured. […] Inhibition of their procoagulant activity by NST300 compounds was tested following pre-incubation of apoptotic cells with the different NST300 compounds.
Pre-incubation of equal numbers of apoptotic or control non-treated cells (10^5) with NST300 compounds was for 10 minutes at room temperature in a final volume of 100 μl. The compounds were used at concentration of 0.5 μM. The results can be seen in FIG. 5a.

[6] = tested on: clotting induced by negatively charged phospholipids in normal plasma
Procedure: The ability of NST300 compounds to inhibit coagulaton catalyzed by negatively—charged phospholipids was evaluated in a standard coagulation test of the Russell viper venom (RVV) assay. The RVV reagent directly activates factor x present in the plasma, thus promoting prothrombinase complex formation. This reagent is widely used as a standard phospholipid responsive clotting test. (Thiagarajan et al., Blood, 1986; 869-874).
The RVV reagent kit, containing RVV and negatively charged phospholipids, from Gradipore, Australia was used. The reactions were started by mixing 100 μl of RVV reagent, and 100 μl of quality control plasma collected from normal individuals (commercially available from Instrumentation Laboratory, Italy). Clotting time was determined as the time-point beyond which the continuously mixed reaction ingredients in the test tube, could no longer be aspirated with a pasteur pipette. Clotting time was measured independently by two separate researchers.

[7] = tested on: HeLa cells undergoing dopamine-induced apoptosis; conditions: 750 nM
Procedure: HeLa cells were plated on tissue culture plates at a density of 3×10^6 cells/10 cm dish, and grown in a DMEM medium containing 10% FCS, as described in A. The cells were then incubated at 37° C. overnight, and then the medium was replaced with a medium containing 2% FCS and 500 μM of dopamine. 18 hours later, the medium was aspirated and discarded, and 10 ml of Phosphate Buffered Saline pH 7.4 (PBS) were added to the culture dish. The cells which were detached from the culture dish into the PBS were collected. These cells represent advanced apoptotic cells. The remaining cells which were attached to the culture dish were trypsinized by the addition of 2 ml of trypsin for 2 minutes at 37° C., followed by the addition of 10 ml of a medium containing 10% of FCS. The cells were then washed with PBS containing 2% Bovine Serum Albumin (BSA), and resuspended in TBS containing 2% BSA (TBS-BSA). These cells were regarded as early apoptotic cells. […] Only non-treated cells that were attached to the culture dish were used as control cells for the FACS analysis.
A set of 3 different cell types was taken:
The incubation with the NST300 compounds or control compound was performed in a final volume of 100 μl TBS-BSA, 5 μg/ml of propidium iodide (PI) and 750 nM of the tested compound or the control compound.
PI is a red fluorescent dye that stains DNA. […] Only cells that are in advanced apoptotic stages, or cells that have already died by apoptosis or necrosis will be permeable to PI and will be stained with the dye. […] The cells were then washed in 500 μl of cold TBS-BSA and centrifugated as before. The cells were then suspended in 100 μl of TBS-BSA containing streptavidin conjugated to fluorescein (FITC). […] Thereafter, the cells were washed three times in TBS-BSA and were taken for FACS analysis.
The FACS analysis was performed on a Beckton-Dickinson cell sorter, using lysis II software. Excitation was at 488 nm and the emission or FITC detection was at 535 nm and for PI detection at 585 nm.

Substance	pKd [1]	clearance within 5 minutes [2] [%]	staining pattern when exogenously added to the apoptotic cells (apoptotic hepatocytes)	staining of DA-induced apoptotic HeLa cells ([3]; 250-750 nM compound, streptavidin-FITC, fluorescent microscopy)	cells FITC positive [4] [%]	effect on procoagulant effect of apoptotic cells [5]	effect on procoagulant effect of apoptotic cells ([5]; listed as NST 301-C)	anti-coagulant effect ([6]; RVV test, FIG. 4)	detection of early apoptotic cells ([7]; FIG. 3c)	early apoptotic cells double stained also with PI ([7]; early apoptotic cells) [%]	binding intensity: ratio of FITC mean value of apoptotic cells to that of control cells ([7]; early apoptotic cells, FIG. 3b) [fold]	total FITC/total PI ratio ([7]; advanced apoptotic cells)	total FITC/total PI ratio ([7]; early apoptotic cells)	staining of advanced apoptotic cells ([3]; 750 nM, FIG. 2c)	staining of cells in early apoptotic stages ([3]; 750 nM, FIG. 2c)	staining of control non-treated HeLa cells ([3]; 750 nM, fluorescent microscopy)	increase of clotting time by a factor ([5]; apoptotic cells)	increase of clotting time by a factor as compared to control ([6]; 0.5-50 μM, control clotting time 40 seconds)
Annexin V: 320 amino acid protein of the annexin family, Ca2+-dependent binding to anionic phospholipid membranes	9.00 to 11.00	90	same pattern of staining	–	–	–	–	–	–	–	–	–	–	–	–	–	–	–
GGGKKKKKRFSFKKSFKLSGFSFKKNKKK (SEQUENCE ID NO. 3) (Biotin)-OH [NST301-C, reference compound]	–	–	–	did not show any significant binding	7	mild effect	very modest effect	Significant, though moderate effect	–	–	–	–	–	–	–	–	–	–
Myristate-GGGKKKKKRFSFKKSFKLSGFSFKKNKKK (SEQUENCE ID NO. 1)-(biotin) [NST301]	–	–	–	–	–	fully reversing	–	–	potent detector	43	4	1.2	2.2	intense labeling	light, peripheral staining	few of them were stained, and very faintly	2	2.6
